Where “and” joins values, the source holds several entries; their conditions need not be identical. Equal entries are not always repeated.

Results on 2 compounds are retold here after patent US8883500B2, “Method of preparing adenosine-resistant anti-tumor T lymphocytes for adoptive immunotherapy” (Northeastern University, priority 2008, dated 2014).

The subject of one series is CD8+ T cells. Put plainly: Flowcytometric analysis (CD8 proportion, intracellular IFN-γ staining). In kind it is cell-based, mice. As to conditions: for reduction of IFN-γ producers: control CTL, agonist 10 μM. The protocol:
Cells recovered from mixed lymphocyte culture were labeled with phycoerythrin-conjugated anti-CD8, allophycocyanin-conjugated anti-CD4 and fluorescein-conjugated anti-CD69 mAb, and were analyzed by FACSCalibur (BD Biosciences). Cytokine production from CTL was analyzed by intracellular staining as described (Nishimura et al., 1999). After the stimulation with immobilized anti-CD3 and anti-CD28 mAb for 24 h, cells were further incubated in the presence of brefeldin A (10 μg ml^−1) for 2 h. Cells were fixed with 4% parafolmaldehyde-PBS for 15 min, permeabilized with permeabilizing buffer (50 mM NaCl, 5 mM EDTA, 0.02% NaN3, 0.5% Triton X-100, 10 mM Tris-HCl, pH 7.5) for 15 min, and stained with fluorescein-labeled anti-IFN-γ mAb. IFN-γ-producing CD8^+ cells were identified by cell surface staining using phycoerythrin-conjugated anti-CD8 mAb. All antibodies were obtained from BD Biosciences.

For a further series, the system named is CTL. The series can be described thus: IFN-γ production from CTL restimulated by immobilized anti-CD3 and anti-CD28 mAbs (ELISA). In kind it is cell-based, mice. More on the design: IFN-γ levels (%) of corresponding CTL without CGS/NECA / IFN-γ levels (%), None (reference = 100): unit of the concentration uncertain. The note with it: for IFN-γ levels (%) of corresponding CTL without CGS/NECA: anti-CD3/anti-CD28 24 h in presence of the agonist (10 (unit uncertain)); for IFN-γ production: control CTL restimulated with anti-CD3 mAb, agonist 10 μM; for IFN-γ levels: restimulation without agonist (None); for IFN-γ levels (%), None (reference = 100): no agonist at restimulation. As for the experimental part: CTL (2×10^5 cells) were washed twice with media and restimulated by plate-bound anti-CD3 and anti-CD28 monoclonal antibodies (mAb) (BD Biosciences, San Diego, Calif.). Anti-CD3 mAb (2 μg ml^−1) and anti-CD28 mAb (1 μg ml^−1) diluted in PBS were immobilized in a flat-bottom 96-well plastic culture plate for 1 h at 37° C. before use. In order to examine anti-tumor cellular response, CTL (2×10^5 cells) were also cultured with mitomycin C-treated P815 mastocytoma (2.5×10^5 cells). […]. Culture supernatant after 24-48 h was assayed for IFN-γ levels by ELISA.
For orientation: ELISA stands for enzyme-linked immunosorbent assay.

In series [1] the test system is A2A/A2B adenosine receptor. Put plainly: cAMP assay in CTL. It is filed as cell-based, mice. As to conditions: control CTL; cAMP inducer 10 μM (FIG. 6 legend), 15 min. The protocol: Stimulation of cAMP production and measurement of cAMP levels were performed as described previously (Apasov et al., 2000). […]; from Tocris, Ellisville, Mo.), or forskolin (adenylate cyclase activator; from Sigma). […]
For orientation: cAMP levels reflect the balance of adenylyl cyclase and phosphodiesterase activity.

Series [2] has as its system mixed lymphocyte culture of C57BL/6 and DBA/2 spleen cells (CTL). Put plainly: IFN-γ levels in mixed lymphocyte culture supernatant (ELISA). In kind it is cell-based, mice. The note with it: for IFN-γ levels in the culture supernatant, decreased to: primary mixed lymphocyte culture 5 days. As for the experimental part: (§1) Antigen-specific cytotoxic T cells were induced by allogenic mixed lymphocyte culture using spleen cells from C57BL/6 (H-2^b) and DBA/2 (H-2^d) mice. Spleen cells from DBA/2 mice were pretreated with 50 μg ml^−1 mitomycin C (Sigma; St. Louis, Mo.) for 30 min at 37° C. After washing three times by centrifugation, 2×10^6 DBA/2 spleen cells (stimulator) were mixed with 6×10^6 C57BL/6 spleen cells (responder) in 2 ml of RPMI1640 medium containing 10% fetal calf serum. The cells were cultured for 5 days in a 12 well plastic plate. In some experiments, CTL (2×10^6 cells) were restimulated on day 5 using mitomycin C-treated DBA/2 spleen cells (4×10^6 cells). The restimulated cells were cultured for additional 2 days, and were analyzed on day 7.
(§2) Culture supernatant was collected 5 days after the set up of mixed lymphocyte culture or 2 days after restimulation and was stored at 4° C. for subsequent measurement of interferon-γ (IFN-γ) levels. IFN-γ was quantified by ELISA (R&D Systems; Minneapolis, Minn.) according to manufacturer's instruction. Cells were incubated for additional 4 h in the presence of 1 μCi [3H] thymidine (American Radiolabeled Chemicals, St. Louis, Mo.) and radioactivity of incorporated thymidine was counted.

Another series has as its system P815 mastocytoma. Put plainly: Cytotoxicity assay, 51Cr release.
The test system of series [3] is mixed lymphocyte culture of C57BL/6 and DBA/2 spleen cells (CTL). The series can be described thus: Mixed lymphocyte culture: cell proliferation ([3H] thymidine incorporation) and cell number. It is filed as cell-based, mice. As to conditions: for cell number, % of control: primary mixed lymphocyte culture 5 days. The protocol:
as §1, §2
(In general: Dividing cells build labelled thymidine or BrdU into new DNA.)

Where [4] appears, read: CTL developed with NECA (0.1 (unit uncertain)).
[5] abbreviates: CTL developed with NECA (1 (unit uncertain)).
Where [6] appears, read: CTL developed with NECA (10 (unit uncertain)).
Setting [7] is: NECA (0.1-1 μM) added only for 2 days after restimulation of 5-day CTL.

Description for P815 mastocytoma: Cytotoxicity of T cells against P815 mastocytoma (H-2^d) was determined by ^51Cr release assay. Initially, P815 cells (2×10^6) were incubated with 100 μCi [^51Cr] sodium chromate (Perkin Elmer, Boston, Mass.) for 1 h at 37° C. The cells were washed for three times by centrifugation to remove excess radioactivity. The labeled P815 cells (1×10^4 cells) were mixed with the effector cells recovered from mixed lymphocyte culture in a volume of 150 μl. […] Sedimentation of the cells in a v-bottom 96 well plate by brief centrifugation was followed by incubation at 37° C. After 4 h, ^51Cr release in the supernatant from target cells was counted using γ-radiation counter. Spontaneous ^51Cr release was measured by culturing target cells alone. Maximum ^51Cr release was measured by adding 1N hydrochloric acid to the same number of target cells. Cytotoxicity was calculated as percentage cell lysis when spontaneous and maximum ^51Cr release were set to 0% and 100%, respectively.

For the compound `CCNC(=O)[C@H]1O[C@@H](n2cnc3c(N)nc(NCCc4ccc(CCC(=O)O)cc4)nc32)[C@H](O)[C@@H]1O` [CGS], the “reduction of IFN-γ producers” value in the series on CD8+ T cells came to 70%. Further, the “IFN-γ levels (%) of corresponding CTL without CGS/NECA” value is 57 ± 8 % with CTL (setting [4]); 67 ± 10 % in the series on CTL (setting [5]); 80 ± 13 % in the series on CTL (setting [6]); 44% and 44 ± 11% in the series on CTL (Control CTL). Also, in the series on CTL, the IFN-γ production entry was “strongly inhibited”. In addition, the “IFN-γ producing capacity retained” value in the series with CTL (negatively selected NECA-CTL tested for inhibition by CGS) was “up to 80%”. Moreover, in series [1], the “increase of cAMP levels” value is given as 7.4 fold.
For the compound `CCNC(=O)[C@H]1O[C@@H](n2cnc3c(N)ncnc32)[C@H](O)[C@@H]1O` [NECA, 5′-N-ethylcarboxamidoadenosine], the “proportion of CD8+ T cells in the expanded cells” value in the series with CD8+ T cells (NECA added only for 2 days after restimulation) is listed as “unchanged from control CTL”. In addition, in the series on CD8+ T cells, the “reduction of IFN-γ producers” value is on record as 70%. Further, in series [2] (setting [7]), the “IFN-γ levels in the culture supernatant after restimulation” value is given as “inhibit”. Besides, the “IFN-γ levels in the culture supernatant, decreased to” value in series [2] (10^−5 M NECA) worked out at 18%; in series [2] (10^−7 M NECA) it was 44%. In addition, the “Cytotoxicity, % of control” value with P815 mastocytoma (CTL from primary culture with 10^−5 M NECA, effector-target ratio 5:1) is on record as 33%. The “cytotoxicity against P815” value in the series on P815 mastocytoma (NECA added only for 2 days after restimulation, effector-target ratio 5:1, 2.5:1, 1.25:1) is given as “not impaired”. Moreover, the results for the IFN-γ levels with CTL (CTL developed with NECA 0.1 μM (table; 0.1 μM)), in the series on CTL (CTL developed with NECA 1 mM (table; 1 μM)) and in the series on CTL (CTL developed with NECA 10 mM (table; 10 μM)) were 3722 pg/mL, 2327 pg/mL and 1089 pg/mL, respectively. In addition, the “IFN-γ levels (%) of corresponding CTL without CGS/NECA” value in the series on CTL (setting [4]) was determined as 44 ± 12 %; in the series with CTL (setting [5]), 56 ± 8 %; in the series on CTL (setting [6]), 60 ± 8 %; with CTL (Control CTL) it was 28 ± 7%. Besides, the “IFN-γ levels (%), None (reference = 100)” value with CTL (setting [4]) is given as 100 ± 23%; in the series on CTL (setting [5]) it was 100 ± 19%; in the series with CTL (setting [6]) it was 100 ± 5%. In addition, the IFN-γ production result in the series on CTL is given as “strongly inhibited”. In addition, in series [1], the “increase of cAMP levels” value worked out at 11.1 fold. In series [3] (setting [7]), the “proliferation of CTL after restimulation” value is “inhibit proliferation of CTL”. Moreover, the entries for the “cell number, % of control” value in series [3] (NECA 0.1 μM), in series [3] (NECA 1 μM) and in series [3] (NECA 10 μM) were 78%, 72% and 68%, respectively. Besides, the “Cell proliferation, [3H] thymidine incorporation, decreased to” value in series [3] (primary mixed lymphocyte culture, 5 days in the presence of NECA (0.1-10 μM)) was 30-40%.
